In patent US20230114207A1, “THE COMBINATION OF CYCLIN DEPENDENT KINASE 7 INHIBITOR AND IMMUNOTHERAPY FOR TREATMENT OF CANCER” (Dana-Farber Cancer Institute, Inc., priority 2019, published 2023):

How the values were obtained:
[1] = test system: Cyclin E, A, B, D in RPP631 and DMS79; assay: Cyclin expression (western blotting, qRT-PCR); format: cell-based, mouse, human; details: 24 hours
Protocol: (§1) Cell pellets were collected and then subjected to total RNA extraction using RNeasy Plus Mini Kit (QIAGEN, Cat #74136) according to the manufacturer's instructions, or using TRIzol:Chloroform phase-separation by centrifugation followed by RNA precipitation using isopropanol. The extracted RNA was reversely transcribed into cDNA using the High-Capacity RNA-to-cDNA™ Kit (Thermo Fisher Scientific, Cat #4387406) according to the manufacturer's instructions. The obtained cDNA samples were diluted and used for RT-qPCR. PowerUp™ SYBR™ Green Master Mix (Thermo Fisher Scientific, Cat #A25742) or TaqMan Gene Expression Master Mix (Life Technologies, Cat #4369514). Gene specific primers with sequences listed in Table 3 were used for PCR amplification and detection on the StepOnePlus™ Real-Time PCR System (Thermo Fisher Scientific). RT-qPCR data were normalized to Actb (mouse cells) or GUSB (human cells) and presented as fold changes of gene expression in the test sample compared to the control.
Cells in culture were collected by centrifuging at 1,500 rpm and then washed with ice-cold PBS twice to completely remove residual medium. […] Protein concentrations in lysates were measured by Pierce™ BCA Protein Assay Kit (Thermo Fisher Scientific, Cat #23225) and followed by the addition of SDS loading buffer (6×) and heated at 95° C. for 5 min. […]

[2] = test system: Tnf, Cxcl10 and Cxcl9 in RPP631; assay: RT-qPCR of Tnf, Cxcl10 and Cxcl9; format: cell-based, mouse; details: after 48 hr
Protocol: as §1

## C=CC(=O)Nc1ccc(C(=O)Nc2n[nH]c3c2CN(C(=O)N[C@H](CN(C)C)c2ccccc2)C3(C)C)cc1 [YKL-5-124]
[1]
  Cyclin E protein and mRNA (CCNE1) levels: increase
  expression of Cyclins A (CCNA1), B (CCNB1), and D (CCND1): remained unchanged
[2]
  tumor cell expression of Tnf, Cxcl10 and Cxcl9: significantly stimulated
